From the NIST ThermoML archive (doi:10.1021/je060348v)
Numbers after ± are expanded uncertainties.

Conditions: Crystal; visual observation

In the case of `OC[C@@H](O)[C@H](O)[C@@H](O)CO` [xylitol], the Normal melting temperature is reported as 94.50 ± 1 °C.
